Data reported in patent publication US6803383B2, “Inhibition of angiogenesis and tumor growth” (The Scripps Research Institute, priority 2000, dated 2004).

Experiments:
[1] = target: T1, MMP2 binding to integrin αvβ3 (Homo sapiens, UniProt P05106+P06756); test: Solid phase integrin binding assay: biotinylated MMP2 binding to immobilized integrin; details: bMMP2 3-5 nM, FIG. 2A
T1 construct: purchased Merck KGaA or Chemicon International (integrin); Chemicon (proMMP2) or Calbiochem (active MMP2)
Method: (§1) Purified integrins were adsorbed overnight onto microtiter wells (1-5 μg/ml, […]) prior to blocking with Caseinblocker (Pierce, Rockford, Ill.). Purified biotinylated MMP2 (bMMP2, 3-5 nM) in binding buffer (50 mM Tris, pH 8, 150 mM NaCl, 1 mM MgCl2, 0.5 mM MnCl2) was added to the wells in the presence or absence of Compound 1, Compound 12, cyclic RGD or RAD peptides, or buffer vehicle alone. Control wells received no integrin. Biotinylated vitronectin (bVN, 1 μg/ml) was used as a reference. Bound protein was detected with HRP-anti-biotin mAb and quantitated at 450 nm with 3,3′,5,5′-tetramethylbenzidine solution (TMB; a substrate for the peroxidase) (BioRad, Hercules, Calif.).

CS-1 melanoma cells = test: In vitro growth of melanoma cells in co-culture with compound; format: cell-based, hamster; details: co-culture with the compound; data not shown
MMP2 [2] = target: T2, MMP2 (Homo sapiens, UniProt P08253); test: Direct binding of Compound 1 to MMP2 coated on the microtiter well; details: data not shown
T2 construct: purchased Calbiochem (La Jolla, Calif.)
T2 sequence (P08253 110-660): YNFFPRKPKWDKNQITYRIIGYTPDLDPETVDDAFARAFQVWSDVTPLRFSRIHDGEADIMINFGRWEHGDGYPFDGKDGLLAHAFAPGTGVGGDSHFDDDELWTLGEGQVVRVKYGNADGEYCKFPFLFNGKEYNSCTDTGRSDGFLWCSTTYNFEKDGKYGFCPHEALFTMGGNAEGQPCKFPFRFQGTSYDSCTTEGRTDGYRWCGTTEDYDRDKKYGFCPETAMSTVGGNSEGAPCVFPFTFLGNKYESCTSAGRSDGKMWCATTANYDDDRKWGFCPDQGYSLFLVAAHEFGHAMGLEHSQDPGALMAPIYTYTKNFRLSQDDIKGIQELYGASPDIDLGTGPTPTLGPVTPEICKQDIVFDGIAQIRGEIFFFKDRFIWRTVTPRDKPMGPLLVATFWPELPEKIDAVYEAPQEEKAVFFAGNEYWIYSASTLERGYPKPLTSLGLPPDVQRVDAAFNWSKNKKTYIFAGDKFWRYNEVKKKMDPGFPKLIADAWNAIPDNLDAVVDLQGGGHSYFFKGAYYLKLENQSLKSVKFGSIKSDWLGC

MMP2 [3] = test: Zymography of chick CAM lysates; format: in vivo; details: FIG. 4C
Method: (§2) Angiogenesis was assessed essentially as described previously (Cell, 85, 683-93 (1996); Cell, 92, 391-400 (1998)). After stimulation with 3 μg/ml of basic fibroblast growth factor (bFGF), 10 day chick embryo CAMs were treated with 20 μl of 3 μM Compound 1 or Compound 12. Three days after induction, the CAMs were quantitated in a blind evaluation. CAMs from each group were pooled, minced, and extracted with 50 mM Tris, […], 0.1% Triton X-100 containing COMPLETE-brand protease inhibitor cocktail without EDTA (Boehringer, Mannheim, Germany) prior to analysis by zymography.
Zymography. Chick CAM lysates were prepared as described above and equal quantities of protein were separated in the absence of reducing agents or boiling on polyacrylamide gels embedded with 0.2% gelatin. The gels were washed with 2% Triton X-100, followed by extensive washing with water prior to overnight incubation at 37° C. in collagenase buffer (50 mM Tris 7.4, 200 mM NaCl 10 mM CaCl2). Gelatinolytic activity was visualized by staining the gels with 0.5% Coomassie blue.

integrin αvβ3 = target: T3, integrin αvβ3 (Homo sapiens, UniProt P05106+P06756); test: Direct binding of [14C]-Compound 1 to immobilized integrin, solid phase
T3 construct: purchased Merck KGaA or Chemicon International
Method: (§3) Dried wells were separated and immersed in BetaMax liquid scintillation cocktail (ICN Biochemicals, Costa Mesa, Calif.) for quantitation. From this binding curve a subsaturating concentration (3 μM) of [^14C]-Compound 1 was examined in the presence and absence of a 25-fold molar excess ([…]) of unlabeled Compound 1 or Compound 12, or 100 μM cyclic RGD or RAD peptide. Control was bVN, used and detected as described above.

integrin α5β1 = integrin α5β1 (Homo sapiens, UniProt P05556+P08648); test: Direct binding of [14C]-Compound 1 to immobilized control integrin, solid phase
Method: as §3

β3CS-1 cells [4] = test: Cell-mediated [3H]-collagen IV degradation via MMP2; format: cell-based, hamster; details: 4 nM active MMP2, 10 μM compound, FIG. 3A
Method: (§4) Wells had been coated overnight with 50 μl of 0.414 mCi/ml [^3H]-collagen IV (ICN Biochemicals, Costa Mesa, Calif.) and washed extensively until the radioactivity in the recovered wash solution reached background. Alternatively, cells were treated as above in the absence of MMP2, or the MMP2 solutions were added directly to the wells without cells, as controls. Collagen IV degradation was quantitated by measuring the radioactivity released into the 50 μl of culture medium as determined in a liquid scintillation counter. For the assessment of biotinylated MMP2 binding to CS-1 cells, cells were suspended in adhesion buffer and incubated with 12 nM bMMP2 for 45 minutes at 37° C. in the presence or absence of 10 μM Compound 1 or Compound 12. Cells were subsequently washed before lysis and processing for SDS-PAGE and immunoblotting with an anti-biotin mAb.

β3CS-1 cells [5] = test: Biotinylated MMP2 cell-binding assay, β3-positive cells; format: cell-based, hamster
Method: CS-1 cells or β3CS-1 cells were incubated in adhesion buffer fibroblast basal medium (FBM) supplemented with 0.5% bovine serum albumin (BSA), 0.4 mM MnCl2 and 10 μg/ml aprotinin) containing either 4 nM purified active MMP2 alone, or in combination with 10 μM Compound 1 or Compound 12 for 45 minutes at 37° C. prior to washing and addition to the [^3H]-collagen IV-coated wells. Wells had been coated overnight with 50 μl of 0.414 mCi/ml [^3H]-collagen IV (ICN Biochemicals, Costa Mesa, Calif.) and washed extensively until the radioactivity in the recovered wash solution reached background. Alternatively, cells were treated as above in the absence of MMP2, or the MMP2 solutions were added directly to the wells without cells, as controls. Collagen IV degradation was quantitated by measuring the radioactivity released into the 50 μl of culture medium as determined in a liquid scintillation counter. […]
Immunoblotting. Equal quantities of protein were separated by SDS-PAGE under reducing conditions and electroblotted to an Immobilon-P membrane (Millipore, Bedford, Md.). The membrane was blocked and immobilized proteins were detected by incubation with an antigen-specific primary antibody, followed by an HRP-conjugated secondary antibody as required. […]

CS-1 cells = test: Biotinylated MMP2 cell-binding assay, β3-negative cells; format: cell-based, hamster; details: 12 nM bMMP2, 10 μM compound; FIG. 3B
Method: as §4

MMP2 [6] = target: T2, MMP2; test: [3H]-collagen IV degradation by purified active MMP2 without cells; format: biochemical; details: 4 nM active MMP2, 10 μM compound, no cells
Method: CS-1 cells or β3CS-1 cells were incubated in adhesion buffer fibroblast basal medium (FBM) supplemented with 0.5% bovine serum albumin (BSA), 0.4 mM MnCl2 and 10 μg/ml aprotinin) containing either 4 nM purified active MMP2 alone, or in combination with 10 μM Compound 1 or Compound 12 for 45 minutes at 37° C. prior to washing and addition to the [^3H]-collagen IV-coated wells. Wells had been coated overnight with 50 μl of 0.414 mCi/ml [^3H]-collagen IV (ICN Biochemicals, Costa Mesa, Calif.) and washed extensively until the radioactivity in the recovered wash solution reached background. Alternatively, cells were treated as above in the absence of MMP2, or the MMP2 solutions were added directly to the wells without cells, as controls. Collagen IV degradation was quantitated by measuring the radioactivity released into the 50 μl of culture medium as determined in a liquid scintillation counter. For the assessment of biotinylated MMP2 binding to CS-1 cells, cells were suspended in adhesion buffer and incubated with 12 nM bMMP2 for 45 minutes at 37° C. in the presence or absence of 10 μM Compound 1 or Compound 12. Cells were subsequently washed before lysis and processing for SDS-PAGE and immunoblotting with an anti-biotin mAb.

[7] = tested on: αvβ3-negative CS-1 melanoma tumors; test: Tumor growth assay on chick CAM; format: in vivo
Method: Primary tumors were grown on CAMs of 9-day embryos by implantation 5×10^6 CS-1 cells and incubation for 7 days. At this point, 50 mg sections of these tumors were subcultured onto fresh 9-day CAMs and allowed to implant for 24 hours before a single intravenous (IV) injection with 100 μl of 100 μM of test compounds in Hank's Balanced Saline Solution (HBSS). Buffer alone was used as control. Tumors were incubated for a total of 10 days, harvested and trimmed free of excess stromal tissue before determining wet weight and processing for histology.
Snap-frozen CS-1 tumor sections were fixed with 4% paraformaldehyde and permeablized with 0.1% Triton X-100. Sections were blocked with 5% bovine serum albumin (BSA) in phosphate buffered saline (PBS) prior to staining with an anti-vWF pAb and visualization with an Alexa 568-conjugated anti-rabbit secondary antibody. Samples were analyzed on a MRC1024 confocal microscope (BioRad, Hercules, Calif.). Blood vessel density was quantitated with a 20×objective on four fields per section and four tumors per condition.

[8] = tested on: bFGF-induced angiogenesis on chick CAM; test: Chick chorioallantoic membrane (CAM) angiogenesis assay; format: in vivo; details: 10 day chick CAM, 3 μg/ml bFGF, 20 μl of 3 μM compound, 3 days; FIGS. 4A, 4B
Method: as §2

[9] = target: T4, MMP2 and tissue inhibitor of metalloproteinase 2 (TIMP2) (Homo sapiens, UniProt P08253); test: Binding between MMP2 and TIMP2
T4 sequence (P08253 110-660): T2 sequence (P08253 110-660)

[10] = target: T5, vitronectin binding to integrin αvβ3 (Homo sapiens, UniProt P05106+P06756); test: Solid phase integrin binding assay: biotinylated vitronectin (bVN) binding to immobilized integrin
T5 construct: purchased Merck KGaA or Chemicon International (integrin)
Method: as §1, §3

T1 sequence (P06756 31-889 limits assumed): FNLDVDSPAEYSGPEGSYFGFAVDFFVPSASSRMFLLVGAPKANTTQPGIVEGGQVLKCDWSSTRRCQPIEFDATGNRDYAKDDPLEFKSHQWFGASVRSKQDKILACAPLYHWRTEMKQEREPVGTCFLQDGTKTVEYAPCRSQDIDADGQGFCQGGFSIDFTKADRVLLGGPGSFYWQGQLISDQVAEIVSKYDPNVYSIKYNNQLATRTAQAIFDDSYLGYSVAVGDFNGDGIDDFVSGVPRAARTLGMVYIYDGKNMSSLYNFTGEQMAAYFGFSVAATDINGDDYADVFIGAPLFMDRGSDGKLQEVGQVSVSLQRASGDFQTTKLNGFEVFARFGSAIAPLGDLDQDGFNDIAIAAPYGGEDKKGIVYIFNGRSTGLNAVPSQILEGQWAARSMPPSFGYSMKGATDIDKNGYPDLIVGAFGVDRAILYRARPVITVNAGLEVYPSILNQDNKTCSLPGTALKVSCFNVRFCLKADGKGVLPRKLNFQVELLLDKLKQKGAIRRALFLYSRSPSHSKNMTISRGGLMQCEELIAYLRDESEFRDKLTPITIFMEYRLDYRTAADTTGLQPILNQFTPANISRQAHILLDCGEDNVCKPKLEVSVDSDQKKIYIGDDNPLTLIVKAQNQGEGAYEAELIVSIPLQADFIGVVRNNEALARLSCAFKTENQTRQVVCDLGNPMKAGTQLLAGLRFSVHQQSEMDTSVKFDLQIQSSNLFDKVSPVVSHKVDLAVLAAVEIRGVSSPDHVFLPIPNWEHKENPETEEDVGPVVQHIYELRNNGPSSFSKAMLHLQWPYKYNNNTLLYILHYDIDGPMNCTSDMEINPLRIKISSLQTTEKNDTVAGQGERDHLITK
T1 sequence (P06756 891-1048 limits assumed): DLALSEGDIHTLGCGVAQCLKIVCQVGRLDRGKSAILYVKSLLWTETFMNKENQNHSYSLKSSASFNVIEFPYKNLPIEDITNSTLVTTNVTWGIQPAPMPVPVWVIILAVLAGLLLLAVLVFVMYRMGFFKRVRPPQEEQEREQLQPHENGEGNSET
T1 sequence (P05106 27-788): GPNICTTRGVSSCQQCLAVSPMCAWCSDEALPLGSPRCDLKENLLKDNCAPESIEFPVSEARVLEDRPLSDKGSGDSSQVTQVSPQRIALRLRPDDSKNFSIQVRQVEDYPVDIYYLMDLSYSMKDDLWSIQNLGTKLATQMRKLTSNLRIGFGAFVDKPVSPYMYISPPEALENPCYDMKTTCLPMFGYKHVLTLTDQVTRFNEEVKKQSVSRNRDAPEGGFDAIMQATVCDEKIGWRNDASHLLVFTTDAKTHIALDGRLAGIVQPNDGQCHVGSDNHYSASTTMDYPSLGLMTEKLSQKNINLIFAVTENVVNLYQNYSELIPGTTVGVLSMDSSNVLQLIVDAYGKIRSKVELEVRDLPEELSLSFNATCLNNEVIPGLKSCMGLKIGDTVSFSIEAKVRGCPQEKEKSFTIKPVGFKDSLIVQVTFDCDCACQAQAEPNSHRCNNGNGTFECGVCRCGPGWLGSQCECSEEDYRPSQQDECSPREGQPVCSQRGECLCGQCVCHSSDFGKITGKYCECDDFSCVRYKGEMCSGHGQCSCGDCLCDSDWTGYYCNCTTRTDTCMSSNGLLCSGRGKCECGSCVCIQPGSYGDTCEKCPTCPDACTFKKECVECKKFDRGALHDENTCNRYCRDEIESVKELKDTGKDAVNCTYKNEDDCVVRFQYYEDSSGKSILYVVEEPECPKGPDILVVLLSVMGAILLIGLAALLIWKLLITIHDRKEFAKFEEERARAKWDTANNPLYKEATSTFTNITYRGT
T3 sequence (P06756 31-889 limits assumed): as the sequence (P06756 31-889 limits assumed) above
T3 sequence (P06756 891-1048 limits assumed): as the sequence (P06756 891-1048 limits assumed) above
T3 sequence (P05106 27-788): as the sequence (P05106 27-788) above
T5 sequence (P06756 31-889 limits assumed): as the sequence (P06756 31-889 limits assumed) above
T5 sequence (P06756 891-1048 limits assumed): as the sequence (P06756 891-1048 limits assumed) above
T5 sequence (P05106 27-788): as the sequence (P05106 27-788) above
Sequence of integrin α5β1 (P08648 42-894 limits assumed): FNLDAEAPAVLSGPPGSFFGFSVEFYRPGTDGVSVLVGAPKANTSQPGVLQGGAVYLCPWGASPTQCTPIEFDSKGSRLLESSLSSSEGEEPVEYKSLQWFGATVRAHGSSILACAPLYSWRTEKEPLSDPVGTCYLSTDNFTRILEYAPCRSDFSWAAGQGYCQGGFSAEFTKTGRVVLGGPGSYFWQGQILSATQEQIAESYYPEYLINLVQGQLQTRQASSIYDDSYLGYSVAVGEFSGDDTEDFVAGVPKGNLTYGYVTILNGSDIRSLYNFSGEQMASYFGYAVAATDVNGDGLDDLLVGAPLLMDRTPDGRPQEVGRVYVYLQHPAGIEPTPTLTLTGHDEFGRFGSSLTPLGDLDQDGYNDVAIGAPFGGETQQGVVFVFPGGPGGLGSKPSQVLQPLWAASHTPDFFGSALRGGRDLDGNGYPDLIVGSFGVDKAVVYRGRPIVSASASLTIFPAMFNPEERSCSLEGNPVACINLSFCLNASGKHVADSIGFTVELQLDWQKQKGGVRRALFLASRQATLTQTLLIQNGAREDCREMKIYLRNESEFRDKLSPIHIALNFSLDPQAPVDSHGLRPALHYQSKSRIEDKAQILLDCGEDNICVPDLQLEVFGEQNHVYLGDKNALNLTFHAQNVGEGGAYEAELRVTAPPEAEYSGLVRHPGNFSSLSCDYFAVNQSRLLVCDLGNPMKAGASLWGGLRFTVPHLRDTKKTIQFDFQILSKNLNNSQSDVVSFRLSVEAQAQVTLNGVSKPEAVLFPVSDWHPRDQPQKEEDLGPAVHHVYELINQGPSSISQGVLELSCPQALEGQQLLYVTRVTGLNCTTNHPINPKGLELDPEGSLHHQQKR
Sequence of integrin α5β1 (P08648 895-1049 limits assumed): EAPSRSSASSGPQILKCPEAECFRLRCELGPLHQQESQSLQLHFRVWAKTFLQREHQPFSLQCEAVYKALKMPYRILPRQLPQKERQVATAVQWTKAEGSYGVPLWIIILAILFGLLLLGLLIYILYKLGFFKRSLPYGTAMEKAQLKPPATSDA
Sequence of integrin α5β1 (P05556 21-798): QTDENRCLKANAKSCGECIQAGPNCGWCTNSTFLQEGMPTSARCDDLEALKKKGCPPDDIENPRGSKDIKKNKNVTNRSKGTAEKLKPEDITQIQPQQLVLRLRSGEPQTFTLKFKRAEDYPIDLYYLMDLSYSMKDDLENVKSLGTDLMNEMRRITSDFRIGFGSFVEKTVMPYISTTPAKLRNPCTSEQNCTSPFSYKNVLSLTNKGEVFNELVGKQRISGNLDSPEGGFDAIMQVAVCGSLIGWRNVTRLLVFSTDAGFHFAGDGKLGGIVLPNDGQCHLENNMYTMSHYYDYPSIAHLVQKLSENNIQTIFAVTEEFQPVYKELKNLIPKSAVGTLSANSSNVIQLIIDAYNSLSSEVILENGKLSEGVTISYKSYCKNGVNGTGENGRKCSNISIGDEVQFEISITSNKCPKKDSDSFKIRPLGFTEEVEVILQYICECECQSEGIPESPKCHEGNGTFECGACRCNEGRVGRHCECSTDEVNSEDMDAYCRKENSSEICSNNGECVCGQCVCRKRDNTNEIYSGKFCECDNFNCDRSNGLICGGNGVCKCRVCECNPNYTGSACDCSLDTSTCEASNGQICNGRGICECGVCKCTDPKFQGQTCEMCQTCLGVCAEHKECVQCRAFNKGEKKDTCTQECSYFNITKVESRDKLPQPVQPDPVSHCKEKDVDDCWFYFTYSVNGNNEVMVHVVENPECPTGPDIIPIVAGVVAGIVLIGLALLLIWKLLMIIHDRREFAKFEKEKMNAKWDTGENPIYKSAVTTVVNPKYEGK

Compound: O=C(CNC(=O)c1cccc(C(=O)NCC(=O)NCCCC[C@H](NC(=O)OCc2ccc(C(F)(F)F)cc2)C(=O)O)c1)NCCCC[C@H](NC(=O)OCc1ccc(C(F)(F)F)cc1)C(=O)O [Compound 1, N,N^1-Bis-[(5-(S)-carboxy-5-[((4-trifluoromethyl)benzyloxycarbonyl)amino]-pentyl)carboxamidomethyl]benzene-1,3-dicarboxamide]
- Effect on MMP2 binding to integrin αvβ3 [1]: completely abrogated
- Growth of CS-1 melanoma cells in vitro (CS-1 melanoma cells): not affected
- Direct binding to MMP2 coated on the well (MMP2 [2]): no binding
- Levels of active MMP2 (62 kDa) in CAM tissues, treated versus untreated (MMP2 [3]): equivalent levels of active MMP2
- Overall levels of MMP2 in CAM lysates (MMP2 [3]): unaffected
- Inhibition of [14C]-Compound 1 binding to integrin αvβ3 by unlabeled compound (integrin αvβ3; 3 μM [14C]-Compound 1, 25-fold molar excess of unlabeled compound, FIG. 2C): inhibited
- Direct binding to integrin αvβ3 (integrin αvβ3; [14C]-labeled Compound 1, titration, FIG. 2B): bound directly
- Direct binding to control integrin α5β1 (integrin α5β1; [14C]-labeled Compound 1, FIG. 2B): minimal interaction
- Direct binding to integrin α5β1 at higher concentrations (integrin α5β1; higher concentrations of compound, data not shown): negligible binding
- Effect on MMP2-enhanced cell-mediated [3H]collagen IV degradation (β3CS-1 cells [4]): specifically abolished
- Effect on enhanced biotinylated MMP2 binding to β3CS-1 cells (β3CS-1 cells [5]; 12 nM bMMP2, 10 μM compound, FIG. 3B): specifically suppressed
- Biotinylated MMP2 binding to β3CS-1 cells, corrected for lane loading (β3CS-1 cells [5]; 10 μM compound, corrected by anti-actin mAb staining, FIG. 3B lane 2): reduced the binding of MMP2 to the β3CS-1 cells to the level observed in the absence αvβ3
- Effect on biotinylated MMP2 binding to β3-negative CS-1 cells (CS-1 cells): not diminished
- Effect on [3H]collagen IV degradation by purified active MMP2 in the absence of cells (MMP2 [6]): still able to degrade
- Overall tumor blood vessel density ([7]; anti-vWF immunofluorescence of tumor sections): gross reduction
- Cell death within the tumor mass ([7]; single IV injection, 100 μl of 100 μM): significant cell death
- Tumor weight ([7]; single IV injection, 100 μl of 100 μM, 10 days, wet weight): significantly retarded
- Growth of transplanted CS-1 melanoma tumors on chick CAM ([7]; single IV injection, 100 μl of 100 μM, 10 days, FIG. 5A): significantly retarded
- Tumor surface vasculature ([7]; single IV injection, 100 μl of 100 μM, FIG. 5A): gross reduction
- Effect on development of new blood vessels in bFGF-stimulated CAM [8]: almost completely abolished
- Effect on binding between MMP2 and TIMP2 [9]: not inhibited

Compound: COC(=O)[C@H](CCCCNC(=O)CNC(=O)c1ccccc1)NC(=O)OCc1ccc(C(F)(F)F)cc1 [Compound 6, (S)-Methyl 6-[2-(benzoylamino)acetamido]-2-[(4-trifluoromethyl)benzyloxycarbonyl)hexanoate]
- Effect on MMP2 binding to integrin αvβ3 [1]: slightly less active than Compound 1

Compound: COC(=O)[C@H](CCCCNC(=O)CNC(=O)COCC(=O)O)NC(=O)OCc1ccc(C(F)(F)F)cc1 [Compound 8]
- Effect on MMP2 binding to integrin αvβ3 [1]: inactive

Compound: O=C(CNC(=O)c1cccc(C(=O)NCC(=O)NCCCC[C@H](NC(=O)c2ccccc2)C(=O)O)c1)NCCCC[C@H](NC(=O)c1ccccc1)C(=O)O [Compound 12, N,N′-Bis-[N-(-5-(S)-((benzoyl)amino)-5-(carboxy)pentyl)carboxamidomethyl]benzene-1,3-dicarboxamide]
- Effect on MMP2 binding to integrin αvβ3 [1]: neither the control compound nor the control peptide cRADfV interfered
- Effect on MMP2-enhanced cell-mediated [3H]collagen IV degradation (β3CS-1 cells [4]): negligible effect
- Effect on biotinylated MMP2 binding to β3-negative CS-1 cells (CS-1 cells): not diminished
- Effect on [3H]collagen IV degradation by purified active MMP2 in the absence of cells (MMP2 [6]): still able to degrade
- Effect on development of new blood vessels in bFGF-stimulated CAM [8]: ineffective

Compound: cRGDfV [reference compound]
- Effect on MMP2 binding to integrin αvβ3 [1]: lack of effect
- Inhibition of bVN binding to immobilized integrin αvβ3 by peptide ([10]; 100 μM cyclic peptide, FIG. 2D): completely abolished
- Effect on vitronectin binding to integrin αvβ3 ([10]; bVN 1 μg/ml, FIG. 2A): inhibited
- Inhibition of [14C]-Compound 1 binding to integrin αvβ3 by peptide (integrin αvβ3; 3 μM [14C]-Compound 1, 100 μM cyclic peptide, FIG. 2D): inability of the cRGDfV peptide to inhibit
